Laboratory results published in patent US8309726B2, “Substituted piperazine compounds of formula 8” (Council of Scientific & Industrial Research, priority 2007, dated 2012).

Columns and labels:
[1] = test system: Renal cancer cell lines; experiment: In vitro cytotoxicity, renal panel; format: cell-based; details: Homo sapiens, average of six to nine different cancer cell lines, 48 h, SRB, read-out: Log GI50 (concentration in mol/L causing 50% growth inhibition) (converted)
Experimental: (§1) In vitro evaluation of cytotoxic activity: Compounds were evaluated for in vitro anticancer activity against sixty human tumour cells derived from nine cancer types (colon, prostate, oral, lung, cervix and breast cancer) as shown in (Table 1, 2 and 3) 8b, 8c, 8d, and 8e, were evaluated for in vitro anticancer activity against sixty human tumour cells derived from nine cancer types (leukemia, non-small-cell lung, colon, CNS, melanoma, ovarian, prostate, and breast cancer) as shown in (Table 2 and 3). For the compound, dose response curves for each cell line were measured at a minimum of five concentrations at 10 fold dilutions. A protocol of 48 h continuous drug exposure was used and a sulforhodamine B (SRB) protein assay was used to estimate cell viability or growth. The concentration causing 50% cell growth inhibition (GI50), total cell growth inhibition (TGI 0% growth) and 50% cell death (LC50, −50% growth) compared with the control was calculated. The mean graph midpoint values of log10 TGI and log10 LC50 as well as log10 GI50 for 8a, 8b, 8c, 8d, and 8e, are listed in (Table 2 and 3).
(§2) Each cancer type represents the average of six to nine different cancer cell lines. The compounds 8a, 8b, 8c, 8d, 8e and 8f were evaluated for in vitro anticancer activity against sixty human tumour cells derived from nine cancer types (leukemia, colon, prostate, renal melanoma CNS, lung, cervix and breast cancer) as shown in Table 3. Compounds 8b, 8c, 8d and 8e show promising cytotoxicity against some cancer cell lines (Table 2). Compounds 8b, 8c, 8d and 8e have been evaluated for their in vitro cytotoxicity in selected human cancer cell lines of colon (Colo205), lung (Hop-62), cervix (SiHa), prostate (DU145, PC3), oral (DWD, HT1080), and breast (MCF7, Zr-75-1) origin. A protocol of 48 h continuous drug exposure has been used and an […] has been used to estimate cell viability or growth. The results are expressed as percent of cell growth determined relative to that of untreated control cells. […] In the breast cancer panel, the growth of BT-549, MCF-7 cell lines are 10.3, and 17.6. In the prostate cancer panel, the growth of DU-145, PC-3 cell lines are 11.3, and 19.2. The GI50 values of compound In the CNS cancer panel, the growth of SF-539, SNB-75 cell lines are […]. […] In vitro cytotoxicity of compounds 8a, and 8b in selected cancer cell lines has been illustrated in Table 3. The average GI50 values for each cancer panel of compounds 8b, 8c, 8d and 8e have been illustrated in above Table 2 and 3

[2] = test system: T47D cell line (breast cancer); experiment: In vitro cytotoxicity, T47D; format: cell-based; details: Homo sapiens, breast cancer cell panel
Experimental: (§3) In vitro evaluation of cytotoxic activity: Compounds were evaluated for in vitro anticancer activity against sixty human tumour cells derived from nine cancer types (colon, prostate, oral, lung, cervix and breast cancer) as shown in (Table 1, 2 and 3) 8b, 8c, 8d, and 8e, were evaluated for in vitro anticancer activity against sixty human tumour cells derived from nine cancer types (leukemia, non-small-cell lung, colon, CNS, melanoma, ovarian, prostate, and breast cancer) as shown in (Table 2 and 3). For the compound, dose response curves for each cell line were measured at a minimum of five concentrations at 10 fold dilutions. […]
(§4) Each cancer type represents the average of six to nine different cancer cell lines. The compounds 8a, 8b, 8c, 8d, 8e and 8f were evaluated for in vitro anticancer activity against sixty human tumour cells derived from nine cancer types (leukemia, colon, prostate, renal melanoma CNS, lung, cervix and breast cancer) as shown in Table 3. […] Compounds 8b, 8c, 8d and 8e have been evaluated for their in vitro cytotoxicity in selected human cancer cell lines of colon (Colo205), lung (Hop-62), cervix (SiHa), prostate (DU145, PC3), oral (DWD, HT1080), and breast (MCF7, Zr-75-1) origin. […] The results are expressed as percent of cell growth determined relative to that of untreated control cells. […]

[3] = test system: HCT-116 cell line (colon cancer); experiment: In vitro cytotoxicity, HCT-116; format: cell-based; details: Homo sapiens; colon cancer HCT-116
Experimental: as §3, §4

[4] = test system: Prostate cancer cell lines; experiment: In vitro cytotoxicity, prostate panel; format: cell-based; details: Homo sapiens, average of six to nine different cancer cell lines, 48 h, SRB, read-out: Log GI50 (concentration in mol/L causing 50% growth inhibition) (converted)
Experimental: as §1, §2

[5] = test system: MCF-7 cell line (breast cancer); experiment: In vitro cytotoxicity, MCF-7; format: cell-based; details: Homo sapiens, MCF7; MCF-7, breast cancer cell panel; read-out: GI50
Experimental: as §3, §4

[6] = test system: Ovarian cancer cell lines; experiment: In vitro cytotoxicity, ovarian panel; format: cell-based; details: Homo sapiens, average of six to nine different cancer cell lines, 48 h, SRB, read-out: Log GI50 (concentration in mol/L causing 50% growth inhibition) (converted)
Experimental: as §1, §2

[7] = test system: KM12 cell line (colon cancer); experiment: In vitro cytotoxicity, KM12; format: cell-based; details: Homo sapiens
Experimental: as §3, §4

[8] = test system: renal and prostate cancer panels; experiment: In vitro cytotoxicity, renal and prostate cancer panels; format: cell-based; details: Homo sapiens; range over renal and prostate cancer panels
Experimental: as §3, §4

[9] = test system: calf thymus (CT) DNA; experiment: Thermal denaturation studies with duplex-form calf thymus DNA; format: binding
Experimental: Compounds were subjected to thermal denaturation studies with duplex-form calf thymus DNA (CT-DNA) using an adaptation of a reported procedure. Working solutions in aqueous buffer (10 mM NaH2PO4/Na2HPO4, 1 mM Na2EDTA, pH 7.00+/−0.01) containing CT-DNA (100 μM in phosphate) and the PBD (20 μM) were prepared by addition of concentrated ANCD solutions in DMSO to obtain a fixed [ANCD]/[DNA] molar ratio of 1:5. The DNA-ANCD solutions were incubated at 37° C. for 0, 18, and 36 h prior to analysis. Samples were monitored at 260 nm using a Beckman DU-7400 spectrophotometer fitted with high performance temperature controller, and heating was applied at 1° C. min^−1 in the 40-90° C. range. DNA helix coil transition temperatures (Tm) were obtained from the maxima in the (dA260)/dT derivative plots. Results are given as the mean+/−standard deviation from three determinations and are corrected for the effects of DMSO co-solvent using a linear correction term. Drug-induced alterations in DNA melting behaviour are given by: ΔTm=Tm (DNA+ANCD)−Tm (DNA alone), where the Tm value for the ANCD-free CT-DNA is 69.0+/−0.01.

[10] = test system: Breast cancer cell lines; experiment: In vitro cytotoxicity, breast panel; format: cell-based; details: Homo sapiens, average of six to nine different cancer cell lines, 48 h, SRB, read-out: Log GI50 (concentration in mol/L causing 50% growth inhibition) (converted)
Experimental: as §1, §2

[11] = test system: Colon cancer cell lines; experiment: In vitro cytotoxicity, colon panel; format: cell-based; details: Homo sapiens, average of six to nine different cancer cell lines, 48 h, SRB, read-out: Log GI50 (concentration in mol/L causing 50% growth inhibition) (converted)
Experimental: as §1, §2

[12] = test system: CNS SF-295, SF-539, SNB-19 and SNB-75 cell lines; experiment: In vitro cytotoxicity, CNS cell lines SF-295, SF-539, SNB-19, SNB-75; format: cell-based; details: Homo sapiens; range over CNS SF-295, SF-539, SNB-19 and SNB-75
Experimental: as §3, §4

[13] = test system: Melanoma cancer cell lines; experiment: In vitro cytotoxicity, melanoma panel; format: cell-based; details: Homo sapiens, average of six to nine different cancer cell lines, 48 h, SRB, read-out: Log GI50 (concentration in mol/L causing 50% growth inhibition) (converted)
Experimental: as §1, §2

[14] = test system: CNS cancer cell lines; experiment: In vitro cytotoxicity, CNS panel; format: cell-based; details: Homo sapiens, average of six to nine different cancer cell lines, 48 h, SRB, read-out: Log GI50 (concentration in mol/L causing 50% growth inhibition) (converted)
Experimental: as §1, §2

[15] = test system: human tumour cell lines; experiment: In vitro anticancer activity against sixty human tumour cell lines (NCI, SRB assay); format: cell-based
Experimental: as §1, §2

[16] = test system: Nonsmall-cell-lung cancer cell lines; experiment: In vitro cytotoxicity, non-small-cell lung panel; format: cell-based; details: Homo sapiens, average of six to nine different cancer cell lines, 48 h, SRB, read-out: Log GI50 (concentration in mol/L causing 50% growth inhibition) (converted)
Experimental: as §1, §2

[17] = test system: Leukemia cancer cell lines; experiment: In vitro cytotoxicity, leukemia panel; format: cell-based; details: Homo sapiens, average of six to nine different cancer cell lines, 48 h, SRB, read-out: Log GI50 (concentration in mol/L causing 50% growth inhibition) (converted)
Experimental: as §1, §2

[18] = test system: COLO 205 cell line (colon cancer); experiment: In vitro cytotoxicity, COLO 205; format: cell-based; details: Homo sapiens; colon cancer COLO 205
Experimental: as §3, §4

**Q.** With `COc1cc(C(=O)N2CCN(c3ncnc4ccccc34)CC2)c(N)cc1OCc1ccccc1` [Compound 8d, [2-amino-4-(benzyloxy)-5-methoxyphenyl][4-(4-quinazolinyl)piperazino]methanone] as the compound, how does the GI50 [1] read?
**A.** Its GI50 is 5.5 µM.

**Q.** What about the GI50 [2] of the same compound?
**A.** Its GI50 is 13.2 µM.

**Q.** What about the GI50 [3] of the same compound?
**A.** The GI50 was 16.3 µM.

**Q.** What about the GI50 [4] of the same compound?
**A.** The GI50 was 7.24 µM.

**Q.** And the GI50 [5]?
**A.** Its GI50 is 12.6 µM.

**Q.** What about the GI50 [6] of the same compound?
**A.** The GI50 was 11.7 µM.

**Q.** And the GI50 [7]?
**A.** Its GI50 is 14.6 µM.

**Q.** What about the GI50 [8] of the same compound?
**A.** The GI50 was 1.16 to 32.4 µM.

**Q.** And the “ΔTm (° C.) after incubation at 37° C. for 0 h” value ([9]; [ANCD]/[DNA] molar ratio 1:5, CT-DNA 100 μM, ligand 20 μM, sodium phosphate buffer pH 7.00, 0 h at 37° C.)?
**A.** The value was 1.5 °C.

**Q.** And the “ΔTm (° C.) after incubation at 37° C. for 18 h” value ([9]; [ANCD]/[DNA] molar ratio 1:5, CT-DNA 100 μM, ligand 20 μM, sodium phosphate buffer pH 7.00, 18 h at 37° C.)?
**A.** The value was 1.9 °C.

**Q.** And the “ΔTm (° C.) after incubation at 37° C. for 36 h” value ([9]; [ANCD]/[DNA] molar ratio 1:5, CT-DNA 100 μM, ligand 20 μM, sodium phosphate buffer pH 7.00, 36 h at 37° C.)?
**A.** Its value is 2.7 °C.

**Q.** And the “Course of ΔTm over incubation at 0 hr, 18 hr and 36 hr” value ([9]; incubation at 37° C., [ANCD]/[DNA] 1:5)?
**A.** The value was “gradually increased”.

**Q.** What about the GI50 [10] of the same compound?
**A.** Its GI50 is 7.08 µM.

**Q.** What about the GI50 [11] of the same compound?
**A.** Its GI50 is 5.13 µM.

**Q.** What about the GI50 [12] of the same compound?
**A.** Its GI50 is 11.8 to 24.2 µM.

**Q.** And the GI50 [13]?
**A.** Its GI50 is 7.24 µM.

**Q.** And the GI50 [14]?
**A.** The GI50 was 1.78 µM.

**Q.** And the “Log10LC50 mean graph midpoint (MG_MID)” value ([15]; 50% cell death, 48 h continuous drug exposure, SRB assay)?
**A.** The value was −4.62.

**Q.** And the “Log10GI50 mean graph midpoint (MG_MID)” value ([15]; 50% cell growth inhibition, 48 h continuous drug exposure, SRB assay)?
**A.** The value was −5.62.

**Q.** And the GI50 ([15]; Homo sapiens, sixty cell lines in nine cell panels)?
**A.** Its GI50 is less than 20 µM.

**Q.** And the antiproliferative activity ([15]; against most of the tested cell lines)?
**A.** Its antiproliferative activity is “nanomolar to low micromolar concentrations”.

**Q.** And the “Log10TGI50 mean graph midpoint (MG_MID)” value ([15]; total cell growth inhibition, 48 h continuous drug exposure, SRB assay)?
**A.** Its value is −5.62.

**Q.** And the GI50 [16]?
**A.** Its GI50 is 1.35 µM.

**Q.** And the GI50 [17]?
**A.** Its GI50 is 4.07 µM.

**Q.** And the GI50 [18]?
**A.** Its GI50 is 11.2 µM.
